Laboratory results from patent US8557812B2, “Small molecule inhibitors of anti-apoptotic BCL-2 family members and the uses thereof” (The Regents of the University of Michigan, priority 2004, dated 2013).

Tests used:
[1] = tested on: MDA-MB-231 (2LMP) cells; test: Cell growth of MDA-MB-231 (2LMP) cells (WST); type: cell-based; conditions: Homo sapiens, read-out: IC50 of cell growth inhibition
[2] = target: human Bcl-xL (Homo sapiens, UniProt Q07817); test: Fluorescence polarization in vitro Bcl-xL binding assay; conditions: displacement of Flu-Bak peptide
Text: For determination of the binding affinity to Bcl-xL protein a human Bcl-xL recombinant His-tagged protein without the C-terminus hydrophobic tail and the Bak-16mer BH3 peptide labeled with 6-carboxyfluorescein succinimidyl ester (FAM) were used.

[3] = target: Bcl-2 (Homo sapiens, UniProt P10415); test: Fluorescence polarization in vitro Bcl-2 binding assay
Procedure: Bcl-2 used in this assay is a recombinant His-fused soluble protein. […] Inc., Research Triangle Park, N.C.). […] The unlabeled Bid peptide is used as the positive control. The Ki values were calculated using our developed equation for FP assay (Nikolovska-Coleska et al., Anal. Biochem., 2004, in press). The program for calculating a Ki value is available free of charge via the Internet at http://sw16.im.med.umich.edu/software/calc_ki/.

human Bcl-xL, sequence (Q07817 1-209 limits assumed): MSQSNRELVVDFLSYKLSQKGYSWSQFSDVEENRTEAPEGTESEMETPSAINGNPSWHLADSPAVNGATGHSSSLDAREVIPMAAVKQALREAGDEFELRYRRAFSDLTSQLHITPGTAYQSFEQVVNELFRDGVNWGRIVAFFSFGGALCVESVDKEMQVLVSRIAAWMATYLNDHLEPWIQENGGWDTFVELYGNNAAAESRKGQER
Bcl-2, sequence (P10415 92-205 limits assumed): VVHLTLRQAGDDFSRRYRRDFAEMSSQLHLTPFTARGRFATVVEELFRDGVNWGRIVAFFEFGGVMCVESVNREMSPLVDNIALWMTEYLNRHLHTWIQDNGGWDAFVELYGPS

| Compound | IC50 [1] | IC50 [2] | IC50 [3] |
| --- | --- | --- | --- |
| CCCCCCc1cc(C(C)C)c(O)c(O)c1O [TM-103] | 100 to 20000 nM |  |  |
| CCCCCC(=O)c1cc(C(C)C)c(O)c(O)c1O [TM-104] | 100 to 20000 nM |  |  |
| CCCCCCCCCCCCCCCc1cc(C(C)C)c(O)c(O)c1O [TM-109] | 100 to 20000 nM |  |  |
| CCCCCCCCCCCCCCC(=O)c1cc(C(C)C)c(O)c(O)c1O [TM-110] | 100 to 20000 nM |  |  |
| CCCCCCCCCCC(=O)c1cc(C(CCCCCCCCCC)c2ccccc2)c(O)c(O)c1O (stereo not shown) [TM-124] | > 20000 nM |  |  |
| CCCCCCCCCCC(c1ccccc1)c1cc(Cc2ccc(Br)cc2)c(O)c(O)c1O (stereo not shown) [TM-125] | 100 to 20000 nM |  |  |
| CC(C)c1ccc(C(=O)c2cc(CCCc3ccccc3)c(O)c(O)c2O)cc1 [TM-126] | 100 to 20000 nM |  |  |
| O=C(c1ccc(Br)cc1)c1cc(CCCc2ccccc2)c(O)c(O)c1O [TM-128] | 100 to 20000 nM |  |  |
| CCCCCCCCCCCc1cc(O)c(O)c(O)c1CCCc1ccccc1 [TM-130] | 100 to 20000 nM |  |  |
| CC(C)Cc1ccc(Cc2cc(CCCc3ccccc3)c(O)c(O)c2O)cc1 [TM-132] | 100 to 20000 nM |  |  |
| CC(C)Cc1ccc(Cc2cc(CCCC3CCCCC3)c(O)c(O)c2O)cc1 [TM-134] | 100 to 20000 nM |  |  |
| O=C(c1ccc(Cc2cc(CCCc3ccccc3)c(O)c(O)c2O)cc1)c1cccc(O)c1O [TM-135] | 100 to 20000 nM |  |  |
| Oc1cccc(Cc2ccc(Cc3cc(CCCC4CCCCC4)c(O)c(O)c3O)cc2)c1O [TM-136] | 100 to 20000 nM |  |  |
| O=C(c1cccc(Br)c1)c1cc(CCCc2ccccc2)c(O)c(O)c1O [TM-137] | 100 to 20000 nM |  |  |
| Cc1cc(C(=O)c2cc(Cc3ccccc3)c(O)c(O)c2O)c(C(C)C)cc1O [TM-143] | > 20000 nM |  |  |
| Cc1cc(Cc2cc(Cc3ccccc3)c(O)c(O)c2O)c(C(C)C)cc1Oc1ccc(C(F)(F)F)cc1[N+](=O)[O-] [TM-144] | 100 to 20000 nM |  |  |
| Cc1cc(Cc2cc(Cc3ccccc3)c(O)c(O)c2O)c(C(C)C)cc1Oc1ccc([N+](=O)[O-])c(C(F)(F)F)c1 [TM-145] | 100 to 20000 nM |  |  |
| Cc1cc(Cc2cc(Cc3ccccc3)c(O)c(O)c2O)c(C(C)C)cc1Oc1ccc([N+](=O)[O-])cc1C(F)(F)F [TM-146] | 100 to 20000 nM |  |  |
| Cc1cc(Cc2cc(Cc3ccccc3)c(O)c(O)c2O)c(C(C)C)cc1Oc1ccnc2ccccc12 [TM-147] | 100 to 20000 nM |  |  |

| Compound | IC50 [1] | IC50 [2] | IC50 [3] |
| --- | --- | --- | --- |
| Cc1cc(C(=O)c2cc(Cc3ccccc3)c(O)c(O)c2O)c(C(C)C)cc1Oc1ccc(C(F)(F)F)cc1[N+](=O)[O-] [TM-148] | 100 to 20000 nM |  |  |
| Oc1ccc(Cc2ccc(Oc3ccccc3)cc2)c(O)c1O [TM-157] |  | > 1000 nM |  |
| CC(C)c1cc(Cc2ccc(Oc3ccccc3)cc2)c(O)c(O)c1O [TM-159] |  | > 1000 nM |  |
| Oc1c(CCc2ccccc2)cc(Cc2ccc(Oc3ccccc3)cc2)c(O)c1O [TM-162] |  | > 1000 nM |  |
| Oc1c(CCCc2ccccc2)cc(Cc2ccc(Oc3ccccc3)cc2)c(O)c1O [TM-163] |  | > 1000 nM |  |
| O=C(c1cc(C(=O)c2cccc3ccccc23)c(O)c(O)c1O)c1cccc2ccccc12 [TM-174] |  | > 1000 nM | > 1000 nM |
| O=C(c1ccc2ccccc2c1)c1cc(C(=O)c2ccc3ccccc3c2)c(O)c(O)c1O [TM-175] |  | > 1000 nM | > 1000 nM |
| O=C(c1cc(C(=O)C2N=C3C=CC=CC3S2)c(O)c(O)c1O)C1N=C2C=CC=CC2S1 (stereo not shown) [TM-176] |  | > 1000 nM | > 1000 nM |
| COc1c(C(=O)C2N=C3C=CC=CC3S2)cc(C(=O)C2N=C3C=CC=CC3S2)c(O)c1O (stereo not shown) [TM-178] |  | > 1000 nM | > 1000 nM |
| O=C(c1ccc(Oc2ccccc2)cc1)c1cc(C(=O)c2nc3ccccc3s2)c(O)c(O)c1O [TM-179] |  | > 1000 nM |  |
| O=C(c1ccc(Oc2ccc(S(=O)(=O)N3CCCCC3)c(Cl)c2)cc1)c1cc(C(=O)c2nc3ccccc3s2)c(O)c(O)c1O [TM-180] |  | > 1000 nM |  |
| O=C(c1ccc(Oc2ccccc2)cc1)c1cc(C(=O)c2nc3ccccc3o2)c(O)c(O)c1O [TM-183] |  | > 1000 nM |  |
| O=C(c1cc(S(=O)(=O)N2CCc3ccc(S(=O)(=O)N4CCCCC4)cc3C2)c(O)c(O)c1O)N1CCc2ccccc2C1 [TM-190] |  | > 1000 nM | ≤ 1000 nM |
| O=C(NCc1ccccc1)c1cc(S(=O)(=O)N2CCc3ccc(S(=O)(=O)N4CCCCC4)cc3C2)c(O)c(O)c1O [TM-192] |  | > 1000 nM | ≤ 1000 nM |
| O=C(c1cc(S(=O)(=O)N2CCc3ccccc3C2)c(O)c(O)c1O)N1CCc2ccc(S(=O)(=O)N3CCCCC3)cc2C1 [TM-193] |  | > 1000 nM | > 1000 nM |
| CC(C)CNS(=O)(=O)c1ccc2c(c1)CN(C(=O)c1cc(S(=O)(=O)N3CCc4ccccc4C3)c(O)c(O)c1O)CC2 [TM-194] |  | > 1000 nM | > 1000 nM |
| O=C(c1cc(S(=O)(=O)N2CCc3ccccc3C2)c(O)c(O)c1O)N1CCc2ccc(S(=O)(=O)Nc3ccccc3)cc2C1 [TM-195] |  | > 1000 nM | > 1000 nM |
| O=C(c1cc(S(=O)(=O)N2CCc3ccccc3C2)c(O)c(O)c1O)N1CCc2ccc(S(=O)(=O)NCc3ccccc3)cc2C1 [TM-196] |  | > 1000 nM | > 1000 nM |
| O=C(c1cc(S(=O)(=O)N2CCc3ccccc3C2)c(O)c(O)c1O)N1CCc2ccc(S(=O)(=O)NCCc3ccccc3)cc2C1 [TM-197] |  | > 1000 nM | ≤ 1000 nM |

| Compound | IC50 [1] | IC50 [2] | IC50 [3] |
| --- | --- | --- | --- |
| O=C(c1cc(S(=O)(=O)N2CCc3ccccc3C2)c(O)c(O)c1O)N1CCc2ccc(S(=O)(=O)NCC(c3ccccc3)c3ccccc3)cc2C1 [TM-198] |  | > 1000 nM | > 1000 nM |
| NC(=O)[C@H](Cc1ccccc1)NS(=O)(=O)c1ccc2c(c1)CN(C(=O)c1cc(S(=O)(=O)N3CCc4ccccc4C3)c(O)c(O)c1O)CC2 [TM-199] |  | > 1000 nM | > 1000 nM |
| O=C(c1cc(S(=O)(=O)N2CCc3ccccc3C2)c(O)c(O)c1O)N1CCc2ccc(S(=O)(=O)N[C@@H](Cc3ccccc3)C(=O)N3CCCCC3)cc2C1 [TM-1200] |  | > 1000 nM | > 1000 nM |
| CN(Cc1ccccc1)S(=O)(=O)c1cc(C(=O)N2CCc3ccc(S(=O)(=O)NCCc4ccccc4)cc3C2)c(O)c(O)c1O [TM-1201] |  | > 1000 nM | > 1000 nM |
| O=C(c1cc(S(=O)(=O)N2CCc3ccccc3C2)c(O)c(O)c1O)N1CCc2ccc(S(=O)(=O)N[C@@H](Cc3ccccc3)C(=O)N3CCN(C(=O)C(F)(F)F)CC3)cc2C1 [TM-1202] |  | > 1000 nM | > 1000 nM |
| O=C(c1cc(S(=O)(=O)N2CCc3ccccc3C2)c(O)c(O)c1O)N1CCc2ccc(S(=O)(=O)N3CCC(Cc4ccccc4)CC3)cc2C1 [TM-1203] |  | > 1000 nM | ≤ 1000 nM |
| CN(CCc1ccccc1)S(=O)(=O)c1cc(C(=O)N2CCc3ccc(S(=O)(=O)NCCc4ccccc4)cc3C2)c(O)c(O)c1O [TM-1205] |  | > 1000 nM | ≤ 1000 nM |
| CN(CCc1ccccc1)S(=O)(=O)c1ccc2c(c1)CN(C(=O)c1cc(S(=O)(=O)N3CCc4ccccc4C3)c(O)c(O)c1O)CC2 [TM-1207] |  | > 1000 nM | ≤ 1000 nM |
| O=C(c1cc(S(=O)(=O)N2CCc3ccccc3C2)c(O)c(O)c1O)N1CCc2ccc(S(=O)(=O)NCCc3cccc(Cl)c3)cc2C1 [TM-1208] |  | > 1000 nM | ≤ 1000 nM |
| O=C(c1cc(S(=O)(=O)N2CCc3ccccc3C2)c(O)c(O)c1O)N1CCc2ccc(S(=O)(=O)NCCc3ccc(Cl)cc3)cc2C1 [TM-1209] |  | > 1000 nM | ≤ 1000 nM |
| NS(=O)(=O)c1ccc(CCNS(=O)(=O)c2ccc3c(c2)CN(C(=O)c2cc(S(=O)(=O)N4CCc5ccccc5C4)c(O)c(O)c2O)CC3)cc1 [TM-1210] |  | > 1000 nM | ≤ 1000 nM |
| O=C(c1cc(S(=O)(=O)N2CCc3ccccc3C2)c(O)c(O)c1O)N1CCc2ccc(S(=O)(=O)NCCc3cccc(Oc4ccccc4)c3)cc2C1 [TM-1211] |  | > 1000 nM | ≤ 1000 nM |
| O=C(c1cc(S(=O)(=O)N2CCc3ccccc3C2)c(O)c(O)c1O)N1CCc2ccc(S(=O)(=O)NCCc3ccc(Oc4ccccc4)cc3)cc2C1 [TM-1212] |  | > 1000 nM | > 1000 nM |
| O=C(c1cc(S(=O)(=O)N2CCc3ccccc3C2)c(O)c(O)c1O)N1CCc2ccc(S(=O)(=O)NCCCc3ccccc3)cc2C1 [TM-1213] |  | > 1000 nM | ≤ 1000 nM |
| O=C(c1cc(S(=O)(=O)N2CCc3ccccc3C2)c(O)c(O)c1O)N1CCc2ccccc2C1 [TM-1214] |  | > 1000 nM | > 1000 nM |
| CNS(=O)(=O)c1ccc2c(c1)CN(C(=O)c1cc(S(=O)(=O)N3CCc4ccccc4C3)c(O)c(O)c1O)CC2 [TM-1215] |  | > 1000 nM | > 1000 nM |
| CCC(CC)CNS(=O)(=O)c1ccc2c(c1)CN(C(=O)c1cc(S(=O)(=O)N3CCc4ccccc4C3)c(O)c(O)c1O)CC2 [TM-1216] |  | > 1000 nM | ≤ 1000 nM |
| CNS(=O)(=O)c1cc(C(=O)N2CCc3ccc(S(=O)(=O)NCCc4ccccc4)cc3C2)c(O)c(O)c1O [TM-1217] |  | > 1000 nM | > 1000 nM |
